The text below walks through data of patent US20230157996A1, “SMALL-MOLECULE INHIBITOR TARGETING EB VIRUS NUCLEAR ANTIGEN PROTEIN, PREPARATION METHOD AND USE THEREOF” (priority 2020, published 2023).

pEC50: −log10 of the molar value. Read-outs that look alike come from different tables or passages of the source. Where only a bound is given, the exact number is not on record here.

The subject of test [1] is C666-1 cells. Description: C666-1 cell viability, EC50 from 8-point dilution (Resazurin). The conditions noted are these: 100-0.78 μmol/L, read-out: EC50 Quantitation. It counts as cell-based. The protocol: In order to assess the effect of the EBNA1 inhibitor at the cellular level, the cytotoxicity assay was performed. The EBNA1 inhibitor selectively killed EBV-positive cell lines ([…]-1 cells), but had no toxicity to EBV-negative cell lines (HONE1 cells and HK1 cells). In the test, 100 μL different cell lines were inoculated in a transparent 96-well plate, each well containing 5×10^3 […]-1 cells. After the cells were cultured in an incubator with 5% carbon dioxide at 37° C. for 24 hours, 10 μL compound at a concentration range from 1 mmol/L to 7.8 μmol/L was added into each well (8 points, 2-fold dilution, the final concentration was 100-0.78 μmol/L), and treated in the incubator with carbon dioxide at 37° C. for 72 hours. The cell viability was assessed using a redox indicator Resazurin. Specifically, 10 μL Resazurin at a concentration of 600 μmol/L was added into each well, and incubated at 37° C. for 3 hours, and a Tecan microplate reader was used to detect the fluorescence signal at an excitation wavelength of 560 nm and an emission wavelength of 590 nm. A software was used to fit the inhibition curve and calculate the concentration for 50% of maximal effect (EC50). The selectivity of compound activity was assessed by comparing the EC50 of EBV-positive and EBV-negative cell lines.

Test [2] concerns C666-1 cells. Put plainly: C666-1 cell viability single concentration (50 μM) inhibition rate (Resazurin). In kind it is cell-based. The conditions noted are these: Homo sapiens, C6661, 72 h, C666-1 cells. The procedure, abridged: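 Resazurin fluorescence (560/590 nm, 3 h development) gave the proliferation inhibition rate, normalised to DMSO-treated and cell-free blank wells. Compound was tested at a single 50 μmol/L final concentration on C666-1 cells for 72 h at 37° C, with duplicate wells, after 24 h seeding.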

Where [3] appears, read: 50 μM compound, 72 hours, read-out: C666-1 cell viability single concentration (50 μM) inhibition rate, Ratio* (Inh %).
[4] abbreviates: single concentration, read-out: Inhibition Rate (Inh %).

As for `COC(=O)c1cccc(N2CC(OC(=O)Nc3ccc(OC(F)(F)F)cc3)C2)c1-n1cccc1` [Example 153, Methyl 2-(1H-pyrrol-1-yl)-3-(3-(((4-(trifluoromethoxy)phenyl)carbamoyl)oxy)azetidin-1-yl)benzoate], the negative logarithm of the EC50 (pEC50) with C666-1 cells [1] (Homo sapiens, C6661, 72 h) is 4.00 to 4.12. For the same molecule, the inhibition at 50 µM in the test with C666-1 cells [2] (setting [3]) and in the test on C666-1 cells [2] (setting [4]) was 10 to 30% each time.
As for `O=C(O)c1cccc(N2CC(Oc3ccc(C(=O)N4CCOCC4)cc3)C2)c1-n1cccc1` [Example 266, 3-(3-(4-(morpholinyl-4-carbonyl)phenoxy)azetidin-1-yl)-2-(1H-pyrrol-1-yl)benzoic acid], the negative-log EC50 (pEC50) in the test with C666-1 cells [1] (Homo sapiens, C6661, 72 h) is under 4.00. Also, the inhibition at 50 µM with C666-1 cells [2] (setting [3]) and in the test on C666-1 cells [2] (setting [4]) was under 10% throughout.
Take `COC(=O)c1cccc(N2CC(OC(=O)NCc3ccc(C(F)(F)F)cc3)C2)c1-n1cccc1` [Example 154, Methyl 2-(1H-pyrrol-1-yl)-3-(3-(((4-(trifluoromethyl)benzyl)carbamoyl)oxy)azetidin-1-yl)benzoate]: the negative-log EC50 (pEC50) in the test on C666-1 cells [1] (Homo sapiens, C6661, 72 h) is under 4.00. The inhibition at 50 µM in the test with C666-1 cells [2] (setting [3]) and with C666-1 cells [2] (setting [4]) was 10 to 30% each time.
Take `COC(=O)c1cccc(N2CC(OC(=S)Nc3ccc(Cl)cc3)C2)c1-n1cccc1` [Example 147, Methyl 3-(3-(((4-chlorophenyl)thiocarbamoyl)oxy)azetidin-1-yl)-2-(1H-pyrrol-1-yl)benzoate]: the negative-log EC50 (pEC50) with C666-1 cells [1] (Homo sapiens, C6661, 72 h) is 4.12 to 4.30. Besides, the inhibition at 50 µM with C666-1 cells [2] (setting [3]) and in the test with C666-1 cells [2] (setting [4]) was 30 to 50% each time.
`COC(=O)c1cccc(N2CC(OC(=O)Nc3ccc(OC)cc3OC)C2)c1-n1cccc1` [Example 146, Methyl 3-(3-(((2,4-dimethoxyphenyl)carbamoyl)oxy)azetidin-1-yl)-2-(1H-pyrrol-1-yl)benzoate]: the negative logarithm of the EC50 (pEC50) with C666-1 cells [1] (Homo sapiens, C6661, 72 h) is under 4.00. Further, the inhibition at 50 µM in the test with C666-1 cells [2] (setting [3]) and with C666-1 cells [2] (setting [4]) was 10 to 30% in each case.
As to `COC(=O)c1cccc(C#CN(Cc2ccccc2)S(C)(=O)=O)c1-n1cccc1` [Example 381, Methyl 3-((N-benzylmethylsulfonamido)ethynyl)-2-(1H-pyrrol-1-yl)benzoate], the pEC50 with C666-1 cells [1] (Homo sapiens, C6661, 72 h) is under 4.00. Moreover, the inhibition at 50 µM in the test with C666-1 cells [2] (setting [3]) and with C666-1 cells [2] (setting [4]) was 30 to 50% each time.
Turning to `COC(=O)c1cccc(C#CN(C)S(=O)(=O)c2ccc(C)cc2)c1-n1cccc1` [Example 383], the pEC50 was under 4.00 with C666-1 cells [1] (72 hours) and over 4.30 in the test with C666-1 cells [1] (Homo sapiens, C6661, 72 h). In addition, the inhibition at 50 µM in the test on C666-1 cells [2] (setting [3]) lay in the range of 10 to 30%.
Take `CCNC(=O)c1ccc(OC2CN(c3cccc(C(=O)O)c3-n3cccc3)C2)cc1` [Example 264, 3-(3-(4-(ethylcarbamoyl)phenoxy)azetidin-1-yl)-2-(1H-pyrrol-1-yl)benzoic acid]: the pEC50 in the test with C666-1 cells [1] (Homo sapiens, C6661, 72 h) was under 4.00. Moreover, the inhibition at 50 µM with C666-1 cells [2] (setting [3]) and with C666-1 cells [2] (setting [4]) was under 10% throughout.
For `COC(=O)c1cccc(N2CC(=CC(=O)OC(C)(C)C)C2)c1-n1cccc1` [Example 189, Methyl 3-(3-(2-(tert-butoxy)-2-oxovinyl)azetidin-1-yl)-2-(1H-pyrrol-1-yl)benzoate], in the test on C666-1 cells [1] (Homo sapiens, C6661, 72 h), the pEC50 was 4.00 to 4.12. For the same molecule, the inhibition at 50 µM with C666-1 cells [2] (setting [3]) and with C666-1 cells [2] (setting [4]) was 10 to 30% each time.
Turning to `COC(=O)c1cccc(N2CC(Oc3ccc(COC(=O)OC4CCOCC4)cc3)C2)c1-n1cccc1` [Example 234, Methyl 3-(3-(4-(((((tetrahydro-2H-pyran-4-yl)oxy)carbonyl)oxy)methyl)phenoxy)azetidin-1-yl)-2-(1H-pyrrol-1-yl)benzoate], in the test with C666-1 cells [1] (Homo sapiens, C6661, 72 h), the negative-log EC50 (pEC50) is over 4.30. The inhibition at 50 µM in the test on C666-1 cells [2] (setting [3]) and in the test on C666-1 cells [2] (setting [4]) was over 50% throughout.
For `COC(=O)c1cccc(N2CC(Oc3ccc(C(=O)Nc4ccccc4)cc3)C2)c1-n1cccc1` [Example 263, Methyl 3-(3-(4-(phenylcarbamoyl)phenoxy)azetidin-1-yl)-2-(1H-pyrrol-1-yl)benzoate], in the test with C666-1 cells [1] (Homo sapiens, C6661, 72 h), the pEC50 was under 4.00. The inhibition at 50 µM in the test on C666-1 cells [2] (setting [3]) and in the test on C666-1 cells [2] (setting [4]) was 10 to 30% throughout.
For the molecule `O=C(Nc1ccccc1)c1ccc(OC2CN(c3cccc(C(=O)O)c3-n3cccc3)C2)cc1` [Example 302, 3-(3-(4-(phenylcarbamoyl)phenoxy)azetidin-1-yl)-2-(1H-pyrrol-1-yl)benzoic acid], the negative-log EC50 (pEC50) with C666-1 cells [1] (Homo sapiens, C6661, 72 h) is under 4.00. Moreover, the inhibition at 50 µM with C666-1 cells [2] (setting [3]) and in the test on C666-1 cells [2] (setting [4]) was 10 to 30% throughout.
On to `O=C(O)c1cccc(N2CC(Oc3ccc(Oc4ccc(C(F)(F)F)cc4)cc3)C2)c1-n1cccc1` [Example 292, 3-(3-(4-(4-(trifluoromethyl)phenoxy)phenoxy)azetidin-1-yl)2-(1H-pyrrol-1-yl)benzoic acid], for which, in the test on C666-1 cells [1] (Homo sapiens, C6661, 72 h), the negative logarithm of the EC50 (pEC50) is over 4.30. Also, the inhibition at 50 µM in the test with C666-1 cells [2] (setting [3]) and in the test on C666-1 cells [2] (setting [4]) was over 50% each time.
With `COC(=O)c1cccc(N2CC(OC(=O)Nc3ccc(Oc4ccccc4)cc3)C2)c1-n1cccc1` [Example 152, Methyl 3-(3-(((4-phenoxyphenyl)carbamoyl)oxy)azetidin-1-yl)-2-(1H-pyrrol-1-yl)benzoate], the pEC50 in the test on C666-1 cells [1] (Homo sapiens, C6661, 72 h) was under 4.00. For the same molecule, the inhibition at 50 µM in the test on C666-1 cells [2] (setting [3]) and with C666-1 cells [2] (setting [4]) was under 10% in each case.
Take `COc1cccc(Oc2ccc(OC3CN(c4cccc(C(=O)O)c4-n4cccc4)C3)cc2)c1` [Example 197, 3-(3-(4-(3-methoxyphenoxy)phenoxy)azetidin-1-yl)-2-(1H-pyrrol-1-yl) benzoic acid]: the pEC50 with C666-1 cells [1] (Homo sapiens, C6661, 72 h) is under 4.00. Besides, the inhibition at 50 µM in the test with C666-1 cells [2] (setting [3]) and with C666-1 cells [2] (setting [4]) was 10 to 30% each time.
